{"source": "patent US20150225762A1", "about": "“SAME-DAY BLOOD CULTURE WITH DIGITAL MICROSCOPY” (ACCELERATE DIAGNOSTICS, INC., priority 2012, published 2015)", "key": {"Ecol 35218 [1]": {"system": "Ecol 35218", "assay": "Plate count of live bacteria after killing treatment", "format": "cell-based, E. coli"}, "Paer 27853 [2]": {"system": "Paer 27853", "assay": "Plate count of live bacteria after killing treatment", "format": "cell-based, P. aeruginosa"}, "Saur 12600 [3]": {"system": "Saur 12600", "assay": "Plate count of live bacteria after killing treatment", "format": "cell-based, S. aureus"}, "Ecol 35218 [4]": {"system": "Ecol 35218", "assay": "FISH detection of live and killed bacteria with or without protease digestion", "format": "cell-based, E. coli"}, "Kpne 13882 [5]": {"system": "Kpne 13882", "assay": "FISH detection of live and killed bacteria with or without protease digestion", "format": "cell-based, K. pneumoniae"}, "Paer 27853 [6]": {"system": "Paer 27853", "assay": "FISH detection of live and killed bacteria with or without protease digestion", "format": "cell-based, P. aeruginosa"}, "Saur 12600 [7]": {"system": "Saur 12600", "assay": "FISH detection of live and killed bacteria with or without protease digestion", "format": "cell-based, S. aureus"}, "Kpne 13882 [8]": {"system": "Kpne 13882", "assay": "Plate count of live bacteria after killing treatment"}, "[9]": {"conditions": "0 hr, after gentamycin 100 micrograms per mL 1 hour or 80% ethanol"}, "[10]": {"conditions": "gentamycin 1 hour or 80% ethanol"}, "[11]": {"conditions": "1 hour, with protease (0.2 mg/mL Pronase)"}, "[12]": {"conditions": "1 hour, with protease (0.2 mg/mL Pronase), cells live or pre-killed as labelled"}, "[13]": {"conditions": "4 hour, with protease (0.2 mg/mL Pronase)"}, "[14]": {"conditions": "4 hour, with protease (0.2 mg/mL Pronase), cells live or pre-killed as labelled"}}, "data": [{"substance": "gentamycin", "values": [{"measurement": "Conc of live bacteria by plating", "setting": "Ecol 35218 [1]; [9]", "result": 10, "unit": "cfu/mL"}, {"measurement": "Killing by plating, in words", "setting": "Ecol 35218 [1]; [10]", "result": "substantially killed"}, {"measurement": "Conc of live bacteria by plating", "setting": "Paer 27853 [2]; [9]", "result": 20, "unit": "cfu/mL"}, {"measurement": "Killing by plating, in words", "setting": "Paer 27853 [2]; [10]", "result": "substantially killed"}, {"measurement": "Conc of live bacteria by plating", "setting": "Saur 12600 [3]; [9]", "result": "2 × 10^3 cfu/mL"}, {"measurement": "Killing by plating, in words", "setting": "Saur 12600 [3]; [10]", "result": "a significant number of S. aureus remained alive"}, {"measurement": "FISH Conc", "setting": "Ecol 35218 [4]; 1 hour, no protease", "result": "8.8 × 10^6 cells/mL"}, {"measurement": "Positive Detection?", "setting": "Ecol 35218 [4]; 1 hour, no protease", "result": "Yes (A detection threshold of 1×10^4 cells per mL was used as the threshold for a positive call in the FISH assay)"}, {"measurement": "Positive Detection?", "setting": "Ecol 35218 [4]; [11]", "result": "Yes (A detection threshold of 1×10^4 cells per mL was used as the threshold for a positive call in the FISH assay)"}, {"measurement": "FISH Conc", "setting": "Ecol 35218 [4]; [12]", "result": "5.5 × 10^5 cells/mL"}, {"measurement": "FISH Conc", "setting": "Ecol 35218 [4]; 4 hour, no protease", "result": "4.8 × 10^5 cells/mL"}, {"measurement": "Positive Detection?", "setting": "Ecol 35218 [4]; 4 hour, no protease", "result": "Yes (A detection threshold of 1×10^4 cells per mL was used as the threshold for a positive call in the FISH assay)"}, {"measurement": "Positive Detection?", "setting": "Ecol 35218 [4]; [13]", "result": "Yes (A detection threshold of 1×10^4 cells per mL was used as the threshold for a positive call in the FISH assay)"}, {"measurement": "FISH Conc", "setting": "Ecol 35218 [4]; [14]", "result": "4.5 × 10^5 cells/mL"}, {"measurement": "FISH Conc", "setting": "Kpne 13882 [5]; 1 hour, no protease", "result": "1.7 × 10^5 cells/mL"}, {"measurement": "Positive Detection?", "setting": "Kpne 13882 [5]; 1 hour, no protease", "result": "Yes (A detection threshold of 1×10^4 cells per mL was used as the threshold for a positive call in the FISH assay)"}, {"measurement": "Positive Detection?", "setting": "Kpne 13882 [5]; [11]", "result": "Yes (A detection threshold of 1×10^4 cells per mL was used as the threshold for a positive call in the FISH assay)"}, {"measurement": "FISH Conc", "setting": "Kpne 13882 [5]; [12]", "result": "7.7 × 10^4 cells/mL"}, {"measurement": "FISH Conc", "setting": "Kpne 13882 [5]; 4 hour, no protease", "result": "<1 × 10^3 cells/mL"}, {"measurement": "Positive Detection?", "setting": "Kpne 13882 [5]; 4 hour, no protease", "result": "No (A detection threshold of 1×10^4 cells per mL was used as the threshold for a positive call in the FISH assay)"}, {"measurement": "Positive Detection?", "setting": "Kpne 13882 [5]; [13]", "result": "Yes (A detection threshold of 1×10^4 cells per mL was used as the threshold for a positive call in the FISH assay)"}, {"measurement": "FISH Conc", "setting": "Kpne 13882 [5]; [14]", "result": "1.7 × 10^4 cells/mL"}, {"measurement": "FISH Conc", "setting": "Paer 27853 [6]; 1 hour, no protease", "result": "3.7 × 10^5 cells/mL"}, {"measurement": "Positive Detection?", "setting": "Paer 27853 [6]; 1 hour, no protease", "result": "Yes (A detection threshold of 1×10^4 cells per mL was used as the threshold for a positive call in the FISH assay)"}, {"measurement": "Positive Detection?", "setting": "Paer 27853 [6]; [11]", "result": "Yes (A detection threshold of 1×10^4 cells per mL was used as the threshold for a positive call in the FISH assay)"}, {"measurement": "FISH Conc", "setting": "Paer 27853 [6]; [12]", "result": "5.3 × 10^4 cells/mL"}, {"measurement": "FISH Conc", "setting": "Paer 27853 [6]; 4 hour, no protease", "result": "3.0 × 10^5 cells/mL"}, {"measurement": "Positive Detection?", "setting": "Paer 27853 [6]; 4 hour, no protease", "result": "Yes (A detection threshold of 1×10^4 cells per mL was used as the threshold for a positive call in the FISH assay)"}, {"measurement": "Positive Detection?", "setting": "Paer 27853 [6]; [13]", "result": "No (A detection threshold of 1×10^4 cells per mL was used as the threshold for a positive call in the FISH assay)"}, {"measurement": "FISH Conc", "setting": "Paer 27853 [6]; [14]", "result": "6.7 × 10^3 cells/mL"}, {"measurement": "FISH Conc", "setting": "Saur 12600 [7]; 1 hour, no protease", "result": "1.4 × 10^5 cells/mL"}, {"measurement": "Positive Detection?", "setting": "Saur 12600 [7]; 1 hour, no protease", "result": "Yes (A detection threshold of 1×10^4 cells per mL was used as the threshold for a positive call in the FISH assay)"}, {"measurement": "Positive Detection?", "setting": "Saur 12600 [7]; [11]", "result": "Yes (A detection threshold of 1×10^4 cells per mL was used as the threshold for a positive call in the FISH assay)"}, {"measurement": "FISH Conc", "setting": "Saur 12600 [7]; [12]", "result": "1.1 × 10^5 cells/mL"}, {"measurement": "FISH Conc", "setting": "Saur 12600 [7]; 4 hour, no protease", "result": "3.0 × 10^4 cells/mL"}, {"measurement": "Positive Detection?", "setting": "Saur 12600 [7]; 4 hour, no protease", "result": "Yes (A detection threshold of 1×10^4 cells per mL was used as the threshold for a positive call in the FISH assay)"}, {"measurement": "Positive Detection?", "setting": "Saur 12600 [7]; [13]", "result": "Yes (A detection threshold of 1×10^4 cells per mL was used as the threshold for a positive call in the FISH assay)"}, {"measurement": "FISH Conc", "setting": "Saur 12600 [7]; [14]", "result": "3.0 × 10^4 cells/mL"}, {"measurement": "Conc of live bacteria by plating", "setting": "Kpne 13882 [8]; [9]", "result": 60, "unit": "cfu/mL"}, {"measurement": "Killing by plating, in words", "setting": "Kpne 13882 [8]; [10]", "result": "substantially killed"}]}]}
